Reference: patent US20230017045A1, “PYRIDINE AND PYRIMIDINE CARBOXYLATE HERBICIDES AND METHODS OF USE THEREOF” (Dow AgroSciences LLC, priority 2017, published 2023)

system: not given; assay: not given; conditions: not given

Row | melting point [°C] | SMILES
1 | 179 to 181 | COC(=O)c1nc(-c2ccc(S(C)(=O)=O)cc2F)c(F)cc1Cl [F379, Methyl 3-chloro-5-fluoro-6-(2-fluoro-4-(methylsulfonyl)phenyl)picolinate]
2 | 155.2 to 163.3 | COc1ncc(Cl)cc1-c1ccc(Cl)c(C(=O)O)n1 [F134, 5,5′-Dichloro-2′-methoxy-[2,3′-bipyridine]-6-carboxylic acid]

system: test plant species; assay: Post-emergent herbicidal activity test (greenhouse, foliar spray, visual growth reduction); format: in vivo; conditions: post-emergence, 336 h, ALOMY: blackgrass (Alopecurus myosuroides), 140 g ai/ha, 14 days after application, read-out: Visual Growth Reduction (%) 14 Days After Application, ALOMY
In short: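 Visual scoring 14 d after treatment (0 = no injury, 100 = complete control) against nontreated and solvent-blank plants gave percent growth reduction. Foliar application used a track sprayer delivering 187 L/ha to seedlings at first or second true leaf stage, grown at 23–29 °C day, ~15 h photoperiod.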

Row | SMILES | pest or weed control at 140 g/ha [%]
3 | COc1ncc(Cl)cc1-c1ccc(Cl)c(C(=O)O)n1 [F134, 5,5′-Dichloro-2′-methoxy-[2,3′-bipyridine]-6-carboxylic acid] | 0 to 29

same assay, conditions: post-emergence, 336 h, AMARE: redroot pigweed (Amaranthus retroflexus), 140 g ai/ha, 14 days after application, read-out: Visual Growth Reduction (%) 14 Days After Application, AMARE

Row | SMILES | pest or weed control at 140 g/ha [%]
4 | COc1ncc(Cl)cc1-c1ccc(Cl)c(C(=O)O)n1 [F134, 5,5′-Dichloro-2′-methoxy-[2,3′-bipyridine]-6-carboxylic acid] | 0 to 29

same assay, conditions: post-emergence, 336 h, AVEFA: wild oat (Avena fatua), 140 g ai/ha, 14 days after application, read-out: Visual Growth Reduction (%) 14 Days After Application, AVEFA

Row | SMILES | pest or weed control at 140 g/ha [%]
5 | COc1ncc(Cl)cc1-c1ccc(Cl)c(C(=O)O)n1 [F134, 5,5′-Dichloro-2′-methoxy-[2,3′-bipyridine]-6-carboxylic acid] | 0 to 29

same assay, conditions: post-emergence, 336 h, CHEAL: lambsquarters (Chenopodium album), 140 g ai/ha, 14 days after application, read-out: Visual Growth Reduction (%) 14 Days After Application, CHEAL

Row | SMILES | pest or weed control at 140 g/ha [%]
6 | COc1ncc(Cl)cc1-c1ccc(Cl)c(C(=O)O)n1 [F134, 5,5′-Dichloro-2′-methoxy-[2,3′-bipyridine]-6-carboxylic acid] | 0 to 29

same assay, conditions: post-emergence, 336 h, CIRAR: canada thistle (Cirsium arvense), 140 g ai/ha, 14 days after application, read-out: Visual Growth Reduction (%) 14 Days After Application, CIRAR

Row | SMILES | pest or weed control at 140 g/ha [%]
7 | COc1ncc(Cl)cc1-c1ccc(Cl)c(C(=O)O)n1 [F134, 5,5′-Dichloro-2′-methoxy-[2,3′-bipyridine]-6-carboxylic acid] | 0 to 29

same assay, conditions: post-emergence, 336 h, CYPES: yellow nutsedge (Cyperus esculentus), 140 g ai/ha, 14 days after application, read-out: Visual Growth Reduction (%) 14 Days After Application, CYPES

Row | SMILES | pest or weed control at 140 g/ha [%]
8 | COc1ncc(Cl)cc1-c1ccc(Cl)c(C(=O)O)n1 [F134, 5,5′-Dichloro-2′-methoxy-[2,3′-bipyridine]-6-carboxylic acid] | 0 to 29

same assay, conditions: post-emergence, 336 h, DIGSA: crabgrass (Digitaria sanguinalis), 140 g ai/ha, 14 days after application, read-out: Visual Growth Reduction (%) 14 Days After Application, DIGSA

Row | SMILES | pest or weed control at 140 g/ha [%]
9 | COc1ncc(Cl)cc1-c1ccc(Cl)c(C(=O)O)n1 [F134, 5,5′-Dichloro-2′-methoxy-[2,3′-bipyridine]-6-carboxylic acid] | 0 to 29

same assay, conditions: post-emergence, 336 h, ECHCG: barnyardgrass (Echinochloa crus-galli), 140 g ai/ha, 14 days after application, read-out: Visual Growth Reduction (%) 14 Days After Application, ECHCG

Row | SMILES | pest or weed control at 140 g/ha [%]
10 | COC(=O)c1nc(-c2ccc(S(C)(=O)=O)cc2F)c(F)cc1Cl [F379, Methyl 3-chloro-5-fluoro-6-(2-fluoro-4-(methylsulfonyl)phenyl)picolinate] | 75 to 84
11 | COc1ncc(Cl)cc1-c1ccc(Cl)c(C(=O)O)n1 [F134, 5,5′-Dichloro-2′-methoxy-[2,3′-bipyridine]-6-carboxylic acid] | 0 to 29

same assay, conditions: post-emergence, 336 h, IPOHE: ivy-leaf morning glory (Ipomoea hederacea), 140 g ai/ha, 14 days after application, read-out: Visual Growth Reduction (%) 14 Days After Application, IPOHE

Row | SMILES | pest or weed control at 140 g/ha [%]
12 | COC(=O)c1nc(-c2ccc(S(C)(=O)=O)cc2F)c(F)cc1Cl [F379, Methyl 3-chloro-5-fluoro-6-(2-fluoro-4-(methylsulfonyl)phenyl)picolinate] | 95 to 100
13 | COc1ncc(Cl)cc1-c1ccc(Cl)c(C(=O)O)n1 [F134, 5,5′-Dichloro-2′-methoxy-[2,3′-bipyridine]-6-carboxylic acid] | 0 to 29

same assay, conditions: post-emergence, 336 h, KCHSC: kochia (Bassia scoparia), 140 g ai/ha, 14 days after application, read-out: Visual Growth Reduction (%) 14 Days After Application, KCHSC

Row | SMILES | pest or weed control at 140 g/ha [%]
14 | COC(=O)c1nc(-c2ccc(S(C)(=O)=O)cc2F)c(F)cc1Cl [F379, Methyl 3-chloro-5-fluoro-6-(2-fluoro-4-(methylsulfonyl)phenyl)picolinate] | 85 to 94
15 | COc1ncc(Cl)cc1-c1ccc(Cl)c(C(=O)O)n1 [F134, 5,5′-Dichloro-2′-methoxy-[2,3′-bipyridine]-6-carboxylic acid] | 0 to 29

same assay, conditions: post-emergence, 336 h, ORYSA: rice (Oryza sativa), 140 g ai/ha, 14 days after application, read-out: Visual Growth Reduction (%) 14 Days After Application, ORYSA

Row | SMILES | pest or weed control at 140 g/ha [%]
16 | COC(=O)c1nc(-c2ccc(S(C)(=O)=O)cc2F)c(F)cc1Cl [F379, Methyl 3-chloro-5-fluoro-6-(2-fluoro-4-(methylsulfonyl)phenyl)picolinate] | 0 to 29
17 | COc1ncc(Cl)cc1-c1ccc(Cl)c(C(=O)O)n1 [F134, 5,5′-Dichloro-2′-methoxy-[2,3′-bipyridine]-6-carboxylic acid] | 0 to 29

same assay, conditions: post-emergence, 336 h, SETFA: giant foxtail (Setaria faberi), 140 g ai/ha, 14 days after application, read-out: Visual Growth Reduction (%) 14 Days After Application, SETFA

Row | SMILES | pest or weed control at 140 g/ha [%]
18 | COC(=O)c1nc(-c2ccc(S(C)(=O)=O)cc2F)c(F)cc1Cl [F379, Methyl 3-chloro-5-fluoro-6-(2-fluoro-4-(methylsulfonyl)phenyl)picolinate] | 75 to 84
19 | COc1ncc(Cl)cc1-c1ccc(Cl)c(C(=O)O)n1 [F134, 5,5′-Dichloro-2′-methoxy-[2,3′-bipyridine]-6-carboxylic acid] | 0 to 29

same assay, conditions: post-emergence, 336 h, SORVU: grain sorghum (Sorghum vulgare), 140 g ai/ha, 14 days after application, read-out: Visual Growth Reduction (%) 14 Days After Application, SORVU

Row | SMILES | pest or weed control at 140 g/ha [%]
20 | COC(=O)c1nc(-c2ccc(S(C)(=O)=O)cc2F)c(F)cc1Cl [F379, Methyl 3-chloro-5-fluoro-6-(2-fluoro-4-(methylsulfonyl)phenyl)picolinate] | 75 to 84
21 | COc1ncc(Cl)cc1-c1ccc(Cl)c(C(=O)O)n1 [F134, 5,5′-Dichloro-2′-methoxy-[2,3′-bipyridine]-6-carboxylic acid] | 0 to 29

same assay, conditions: post-emergence, 336 h, STEME: common chickweed (Stellaria media), 140 g ai/ha, 14 days after application, read-out: Visual Growth Reduction (%) 14 Days After Application, STEME

Row | SMILES | pest or weed control at 140 g/ha [%]
22 | COC(=O)c1nc(-c2ccc(S(C)(=O)=O)cc2F)c(F)cc1Cl [F379, Methyl 3-chloro-5-fluoro-6-(2-fluoro-4-(methylsulfonyl)phenyl)picolinate] | 0 to 29
23 | COc1ncc(Cl)cc1-c1ccc(Cl)c(C(=O)O)n1 [F134, 5,5′-Dichloro-2′-methoxy-[2,3′-bipyridine]-6-carboxylic acid] | 0 to 29

same assay, conditions: post-emergence, 336 h, TRZAS: wheat, spring (Triticum aestivum), 140 g ai/ha, 14 days after application, read-out: Visual Growth Reduction (%) 14 Days After Application, TRZAS

Row | SMILES | pest or weed control at 140 g/ha [%]
24 | COC(=O)c1nc(-c2ccc(S(C)(=O)=O)cc2F)c(F)cc1Cl [F379, Methyl 3-chloro-5-fluoro-6-(2-fluoro-4-(methylsulfonyl)phenyl)picolinate] | 60 to 74
25 | COc1ncc(Cl)cc1-c1ccc(Cl)c(C(=O)O)n1 [F134, 5,5′-Dichloro-2′-methoxy-[2,3′-bipyridine]-6-carboxylic acid] | 0 to 29

same assay, conditions: post-emergence, 336 h, blackgrass (Alopecurus myosuroides), 14 Days After Application, 140 g ai/ha, read-out: Visual Growth Reduction (%) ALOMY

Row | SMILES | pest or weed control at 140 g/ha [%]
26 | COC(=O)c1nc(-c2ccc(S(C)(=O)=O)cc2F)c(F)cc1Cl [F379, Methyl 3-chloro-5-fluoro-6-(2-fluoro-4-(methylsulfonyl)phenyl)picolinate] | 0 to 29

same assay, conditions: post-emergence, 336 h, canada thistle (Cirsium arvense), 14 Days After Application, 140 g ai/ha, read-out: Visual Growth Reduction (%) CIRAR

Row | SMILES | pest or weed control at 140 g/ha [%]
27 | COC(=O)c1nc(-c2ccc(S(C)(=O)=O)cc2F)c(F)cc1Cl [F379, Methyl 3-chloro-5-fluoro-6-(2-fluoro-4-(methylsulfonyl)phenyl)picolinate] | 0 to 29

same assay, conditions: post-emergence, 336 h, crabgrass (Digitaria sanguinalis), 14 Days After Application, 140 g ai/ha, read-out: Visual Growth Reduction (%) DIGSA

Row | SMILES | pest or weed control at 140 g/ha [%]
28 | COC(=O)c1nc(-c2ccc(S(C)(=O)=O)cc2F)c(F)cc1Cl [F379, Methyl 3-chloro-5-fluoro-6-(2-fluoro-4-(methylsulfonyl)phenyl)picolinate] | 60 to 74

same assay, conditions: post-emergence, 336 h, lambsquarters (Chenopodium album), 14 Days After Application, 140 g ai/ha, read-out: Visual Growth Reduction (%) CHEAL

Row | SMILES | pest or weed control at 140 g/ha [%]
29 | COC(=O)c1nc(-c2ccc(S(C)(=O)=O)cc2F)c(F)cc1Cl [F379, Methyl 3-chloro-5-fluoro-6-(2-fluoro-4-(methylsulfonyl)phenyl)picolinate] | 60 to 74

same assay, conditions: post-emergence, 336 h, redroot pigweed (Amaranthus retroflexus), 14 Days After Application, 140 g ai/ha, read-out: Visual Growth Reduction (%) AMARE

Row | SMILES | pest or weed control at 140 g/ha [%]
30 | COC(=O)c1nc(-c2ccc(S(C)(=O)=O)cc2F)c(F)cc1Cl [F379, Methyl 3-chloro-5-fluoro-6-(2-fluoro-4-(methylsulfonyl)phenyl)picolinate] | 60 to 74

same assay, conditions: post-emergence, 336 h, wild oat (Avena fatua), 14 Days After Application, 140 g ai/ha, read-out: Visual Growth Reduction (%) AVEFA

Row | SMILES | pest or weed control at 140 g/ha [%]
31 | COC(=O)c1nc(-c2ccc(S(C)(=O)=O)cc2F)c(F)cc1Cl [F379, Methyl 3-chloro-5-fluoro-6-(2-fluoro-4-(methylsulfonyl)phenyl)picolinate] | 0 to 29

same assay, conditions: post-emergence, 336 h, yellow nutsedge (Cyperus esculentus), 14 Days After Application, 140 g ai/ha, read-out: Visual Growth Reduction (%) CYPES

Row | SMILES | pest or weed control at 140 g/ha [%]
32 | COC(=O)c1nc(-c2ccc(S(C)(=O)=O)cc2F)c(F)cc1Cl [F379, Methyl 3-chloro-5-fluoro-6-(2-fluoro-4-(methylsulfonyl)phenyl)picolinate] | 0 to 29
